# Data published in patent US10668055B2, “Cancer treatment using combinations of ERK and RAF inhibitors” (BIOMED VALLEY DISCOVERIES, INC., priority 2013, dated 2020).
# Where two headings read alike, the source gives them in different places.
# Tests used:
# [1] = system: A375; test: Single agent proliferation assay (CellTiter-Glo, 72 h); assay type: cell-based, human; conditions: A375, 72 h
# Procedure: (§1) Cells were seeded in 96-well plates at the densities and media conditions indicated in Table 17 and allowed to adhere overnight prior to addition of compound or vehicle control. Compounds were prepared from DMSO stocks to give the desired final concentrations. The final DMSO concentration was constant at 0.1%. Test compounds were incubated with the cells for 72 h at 37° C., 5% CO2 in a humidified atmosphere. CellTiter-Glo® reagent (Promega, Madison, Wis.) was added according to manufacturer's instructions and luminescence detected using the BMG FLUOstar plate reader (BMG Labtech, Ortenberg, Germany). The average media only background value was deducted and the data analysed using a 4-parameter logistic equation in GraphPad Prism (GraphPad Software, La Jolla, Calif.).
# [2] = system: G-361; test: as above; assay type: cell-based; conditions: G-361, 72 h
# Procedure: as §1
# [3] = system: MAPK signaling pathway in A375 and HCT116 cells; conditions: Morris et al., 2013; cited from earlier work
# [4] = system: A375 cells; test: Proliferation assay (Alamar Blue, 96 hours) on parental and dose-escalated A375 cell lines; conditions: Homo sapiens
# Procedure: Cancer cell lines were maintained in cell culture under standard media and serum conditions. For dose escalation studies, A375 cells were split, grown to about 40-60% confluence, and then treated with the initial dose of the specified drug.
# Proliferation assays were used to track changes in sensitivity to the escalated agent(s) at appropriate time intervals (e.g. each month, although the timing is dependent on adequate cell numbers being available). For proliferation assays, cells were seeded in 96-well plates at 3000 cells per well in drug-free DMEM medium containing 10% FBS and allowed to adhere overnight prior to addition of compound or vehicle control. […] Test compounds were incubated with the cells for 96 hours at 37° C. and 5% CO2 in a humidified atmosphere. Alamar Blue 10% (v/v) was then added and incubated for 4 hours and fluorescent product was detected using a BMG FLUOstar plate reader. The average media only background value was deducted and the data analyzed using a 4-parameter logistic equation in GraphPad Prism. Paclitaxel was used as a positive control.
# [5] = system: A375 cells; test: Dose escalation study in A375 cells; assay type: cell-based, human; conditions: after 2 months, cells exposed to agent alone
# Procedure: Single agent dose escalations were performed based on Little et al., 2011 and is outlined in FIG. 25. Cells were then allowed to grow until 70-90% confluence and split. […] Medium was refreshed every 3-4 days. When cells again reached about 40-60% confluence, the dose was escalated. In the event that the 40-60% window was missed, the cells were split again and dosed once they reached 40-60% confluence. Again, medium was refreshed every 3-4 days. The process was repeated as required (FIG. 25).
# [6] = system: MAPK signaling pathway in A375 and HCT116 cells; test: Western blot analysis of MAPK signaling, cell cycle and apoptosis proteins; assay type: cell-based, human
# Procedure: Cells were allowed to adhere overnight prior to addition of the indicated amount of test compound (BVD-523) or vehicle control. Cells were treated for either 4 or 24 hours before isolation of whole-cell protein lysates, as specified below. Cells were harvested by trypsinisation, pelleted and snap frozen. Lysates were prepared with RIPA (Radio-Immunoprecipitation Assay) buffer, clarified by centrifugation and quantitated by bicinchoninic acid assay (BCA) assay. 20-50 μg of protein was resolved by SDS-PAGE electrophoresis, blotted onto PVDF membrane and probed using the antibodies detailed in Table 13 (for the 4-hour treatment) and Table 14 (for the 24-hour treatment) below.
# [7] = system: A375 human melanoma xenograft; test: A375 in vivo study: tumor growth delay and regression responses; parameters: species or system athymic nude mice; conditions: for MTV (n) D45: Day 45
# Procedure: Female athymic nude mice (Crl:NU(Ncr)-Foxn/^nu, Charles River) were nine weeks old with a body weight (BW) range of 17.5 to 26.2 grams on Day 1 of the study. The animals were fed ad libitum water (reverse osmosis, 1 ppm CI), and NIH 31 Modified and Irradiated Lab Diet® consisting of 18.0% crude protein, 5.0% crude fat, and 5.0% crude fiber. The mice were housed on irradiated Enrich-o'cobs™ Laboratory Animal Bedding in static microisolators on a 12-hour light cycle at 20-22° C. (68-72° F.) and 40-60% humidity. The recommendations of the Guide for Care and Use of Laboratory Animals with respect to restraint, husbandry, surgical procedures, feed and fluid regulation, and veterinary care were complied with.
# Tumor xenografts were initiated with A375 human melanomas by serial subcutaneous transplantation in athymic nude mice. On the day of tumor implant, each test mouse received a 1 mm^3 A375 fragment implanted subcutaneously in the right flank, and tumor growth was monitored as the average size approached the target range of 80 to 120 mm^3. Tumors were measured in two dimensions using calipers, and volume was calculated using the formula: […]
# Ten days after tumor implantation, designated as Day 1 of the study, the animals were sorted into nine groups (Groups 1-9) each consisting of fifteen mice and one group (Group 10) consisting of ten mice. Individual tumor volumes ranged from 75 to 144 mm^3 and group mean tumor volumes were 110 or 111 mm^3.
# On Day 1 of the study, mice were sorted into nine groups (Group 1-9) each consisting of fifteen mice and one group (Group 10) consisting of ten mice, and dosing was initiated according to the treatment plan summarized in Table 15 below. Each dose was given by oral gavage (p.o.) in a dosing volume of 10 mL/kg (0.2 mL per 20 grams of body weight), scaled to the body weight of each individual animal. The vehicle and dabrafenib doses were to be given once daily until study end (qd to end), whereas the BVD-523 doses were to be given twice daily until study end (bid to end). For bid dosing, dosing was initiated in the afternoon on Day 1, so that one dose was given on the first day (“first day 1 dose”).
# Due to the striking response to combination treatment, dosing in Groups 2-5 was stopped on Day 20 in order to monitor tumor re-growth. Dosing was to be re-initiated in a group when the mean tumor burden reached 1000 mm^3. By Day 42, the 1000 mm^3 mean tumor burden had not been reached in any of the combination groups. Dosing was re-initiated to permit post-final dose serum and tumor sampling for pharmacokinetic analyses. […] The final dosing schedules are shown below in Table 16.
# Tumors were measured using calipers twice per week, and each animal was euthanized when its tumor reached the pre-determined tumor volume endpoint of 2000 mm^3 or on the final day, whichever came first. Animals that exited the study for tumor volume endpoint were documented as euthanized for tumor progression (TP), with the date of euthanasia. The time to endpoint (TTE) for analysis was calculated for each mouse by the following equation:
# [formula] where TTE is expressed in days, endpoint volume is expressed in mm^3, b is the intercept, and m is the slope of the line obtained by linear regression of a log-transformed tumor growth data set. The data set consists of the first observation that exceeded the endpoint volume used in analysis and the three consecutive observations that immediately preceded the attainment of this endpoint volume. The calculated TTE is usually less than the TP date, the day on which the animal was euthanized for tumor size. […] Any animal classified as having died from NTR (non-treatment-related) causes due to accident (NTRa) or due to unknown etiology (NTRu) were excluded from TTE calculations (and all further analyses). Animals classified as TR (treatment-related) deaths or NTRm (non-treatment-related death due to metastasis) were assigned a TTE value equal to the day of death. […]
# [8] = A375 in vivo study: toxicity (body weight, deaths, side effects)
# Excerpt: Animals were weighed daily on Days 1-5, then twice per week until completion of the study. […] Individual body weight loss was monitored as per protocol, and any animal that exceeded the limits for acceptable body weight loss was euthanized. Group mean body weight loss also was monitored as per protocol. Dosing was to be suspended in any group that exceeded the limits for acceptable mean body weight loss. If mean body weight recovered, then dosing was to be resumed in that group, but at a lower dosage or less frequent dosing schedule.
# Acceptable toxicity for the maximum tolerated dose (MTD) was defined as a group mean body-weight loss of less than 20% during the study and not more than 10% treatment-related (TR) deaths. […] A death was classified as non-treatment-related (NTR) if there was no evidence that death was related to treatment side effects. NTR deaths were further characterized based on cause of death. A death was classified as NTRa if it resulted from an accident or human error. […] A death was classified as NTRu if the cause of death was unknown and there was no available evidence of death related to treatment side effects, metastasis, accident or human error, although death due to treatment side effects cannot be excluded.
# [9] = system: melanoma xenograft model derived from biopsies obtained from a patient; test: Melanoma xenograft model derived from patient biopsies after progression on vemurafenib; assay type: in vivo; conditions: model with acquired cross-resistance
smiles,measurement,setting,value
O=C(Nc1ccc2[nH]nc(-c3ccncc3)c2c1)[C@@H]1CCN(CC(=O)N2CCN(c3ccc(-c4ncccn4)cc3)CC2)C1 [SCH772984],IC50,"[1]; Homo sapiens, A-375",32 nM
same,IC50,[2]; Homo sapiens,180 nM
same,Autophosphorylation of ERK,[3],inhibit autophosphorylation of ERK
CC(=O)Nc1cccc(-n2c(=O)n(C3CC3)c(=O)c3c(Nc4ccc(I)cc4F)n(C)c(=O)c(C)c32)c1 [Trametinib],IC50,"[4]; A-375, read-out: Relative IC50, Month 1, Par = Parental cell line",0.5 nM
same,IC50,"[4]; A-375, read-out: Relative IC50, Month 1, cell line BVD-523 (0.48 μM)",0.7 nM
same,IC50,"[4]; A-375, read-out: Relative IC50, Month 1, cell line Dab (15 nM Dab)",2.5 nM
same,IC50,"[4]; A-375, read-out: Relative IC50, Month 1, cell line Dab/523 (7.5 nM/0.24 μM)",3.1 nM
same,IC50,"[4]; A-375, read-out: Relative IC50, Month 1, cell line Tram (growing in 2 nM Tram)",2.2 nM
same,IC50,"[4]; A-375, read-out: Relative IC50, Month 2, Par = Parental cell line",0.4 nM
same,IC50,"[4]; A-375, read-out: Relative IC50, Month 2, cell line BVD-523 (0.8 μM)",24.3 nM
same,IC50,"[4]; A-375, read-out: Relative IC50, Month 2, cell line Dab (127 nM Dab)",1.1 nM
same,IC50,"[4]; A-375, read-out: Relative IC50, Month 2, cell line Dab/523 (12.5 nM/0.4 μM)",6.2 nM
same,IC50,"[4]; A-375, read-out: Relative IC50, Month 2, cell line Tra (8 nM Tram)",0.7 nM
same,IC50,"[4]; A-375, read-out: Relative IC50, Month 3, Par = Parental cell line",0.2 nM
same,IC50,"[4]; A-375, read-out: Relative IC50, Month 3, cell line Dab (3.2 μM Dab)",0.4 nM
CC(C)Nc1cc(-c2c[nH]c(C(=O)N[C@H](CO)c3cccc(Cl)c3)c2)c(Cl)cn1 [BVD-523],Increase in drug exposure beyond the IC50 that cells withstand,[5],less than 10 fold
same,PARP protein cleavage and increased apoptosis,[6]; A375 cell background,not noted
same,Autophosphorylation of ERK,[6]; FIG. 18,allows for the autophosphorylation of ERK while still inhibiting ERK
same,DUSP6 total protein levels,[6]; prolonged treatment,greatly reduced
same,cyclin-D1 protein levels,[6]; prolonged treatment,greatly reduced
same,total levels of Bim-EL,[6]; prolonged treatment,increase
same,% TGD,[7]; G8: 50 mg/kg po bid to end,−7%
same,Median TTE,[7]; G8: 50 mg/kg po bid to end,8.6 days
same,PR (partial regressions),[7]; G8: 50 mg/kg po bid to end,0
same,MTV (n) D45,[7]; G8: 50 mg/kg po bid to end,0 (1) imd
same,% TGD,[7]; G9: 100 mg/kg po bid to end,101%
same,Median TTE,[7]; G9: 100 mg/kg po bid to end,18.5 days
same,PR (partial regressions),[7]; G9: 100 mg/kg po bid to end,0
same,T-C,[7]; G9: 100 mg/kg po bid to end,9.3 days
same,MTV (n) D45,[7]; G9: 100 mg/kg po bid to end,2 (2) imd
same,Deaths NTR,[8]; G8: 50 mg/kg po bid to end,0
same,Deaths TR,[8]; G8: 50 mg/kg po bid to end,0
same,Mean BW Nadir,"[8]; G8: 50 mg/kg po bid to end, nadir on Day 2",−0.1% Day 2
same,Deaths NTR,[8]; G9: 100 mg/kg po bid to end,0
same,Deaths TR,[8]; G9: 100 mg/kg po bid to end,0
same,Anti-tumor response,[9],potent anti-tumor response
same,IC50,"[1]; Homo sapiens, A-375",87 nM
same,IC50,[2]; Homo sapiens,344 nM
N#Cc1c(Oc2ccc(F)c(NC(=O)Cc3cccc(C(F)(F)F)c3)c2)ccc2nc(NC(=O)C3CC3)sc12 [TAK-632],IC50,[1],26 nM
same,IC50,[2],164 nM
